Reference: PMC4535766, “Antiprotozoal Activity Profiling of Approved Drugs: A Starting Point toward Drug Repositioning” (PLoS ONE, 2015)
Read-outs that look alike come from different tables or passages of the source.

Experiments:
[1] = test system: T. b. rhodesiense strain STIB 900, trypomastigotes; experiment: In vitro activity against T. b. rhodesiense, serial drug dilution assay; conditions: for Activity against T. b. rhodesiense (in words): in vitro; for selectivity ratio: rat
Protocol: (§1) Drug stock solutions (10mg/ml) were in DMSO (100%). […] Selectivity index (SI) was calculated as IC50 L6 cells/IC50 parasite.

in vitro = conditions: rat
Protocol: as §1

[2] = test system: T. cruzi, strain Tulahuen C4, intracellular amastigotes; experiment: microbe, parasite or virus in culture
Protocol: as §1

[3] = test system: axenic amastigotes of L. donovani, strain MHOM-ET-67/L82; experiment: In vitro activity against L. donovani axenic amastigotes, serial drug dilution assay; type: cell-based, Leishmania donovani
Protocol: as §1

[4] = test system: intracellular amastigotes of L. donovani strain MHOM-ET-67/L82; experiment: Activity against Leishmania donovani intracellular amastigotes in mouse peritoneal macrophages
Method in brief: (§2)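 Axenic amastigotes grown at pH 5.4 infected mouse peritoneal macrophages for 4 h before free parasites were washed off. Next day, seven 3-fold drug dilutions (30–0.04 μg/ml) were added for 96 h. Giemsa-stained infected macrophages were counted, burden reduction was taken vs untreated controls, and IC50 came from linear regression.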

P. falciparum strain K1 = experiment: In vitro activity against P. falciparum, serial drug dilution assay; conditions: for selectivity ratio: rat, Selectivity index: IC50 Cytotoxicity L6/ IC50 P. falciparum
Protocol: as §1

[5] = Cytotoxicity on macrophages infected with L. donovani; type: cell-based, mouse; conditions: mouse
[6] = test system: macrophages infected with L. donovani; experiment: as above; type: cell-based, mouse; conditions: for IC50: macrophages infected with L. donovani, read-out: IC50 Cytotox. mac.inf.
[7] = test system: L. donovani strain MHOM-ET-67/L82 amastigotes; experiment: in vitro; conditions: mouse, Selectivity index: IC50 Cytotoxicity macrophages/ IC50 L. donovani
Method in brief: as §2

[8] = In vitro cytotoxicity with mouse peritoneal macrophages (Alamar Blue); type: cell-based
Protocol: After 96 h of incubation, the plates were inspected under an inverted microscope to assure sterility. […] The IC50 values were calculated by linear regression from the sigmoidal dose inhibition curves using SoftmaxPro software (Molecular Devices Cooperation, Sunnyvale, CA, USA).

L6 cells = experiment: Cytotoxicity on L6 cells; conditions: read-out: IC50 Cytotox. L6; L6 cells; means of two independent assays
Protocol: as §1

[9] = Trypanosoma brucei, read-out: IC50 T. b. rhod.
[10] = Trypanosoma cruzi, TULAHUEN, read-out: IC50 T. cruzi
[11] = Leishmania donovani, axenic amastigotes, strain MHOM-ET-67/L82, means of two independent assays, read-out: IC50 L. don. axen.
[12] = Leishmania donovani, Peritoneal macrophage, in Mus musculus, 96 h, read-out: IC50 L. don. intracell
[13] = Plasmodium falciparum, K1, read-out: IC50 P. falc. K1
[14] = macrophages infected with L. donovani, read-out: IC50 Cytotox. mac.inf.
[15] = Trypanosoma brucei, read-out: T. b. rhod. IC50
[16] = Trypanosoma cruzi, TULAHUEN, read-out: T. cruzi IC50
[17] = Leishmania donovani, L. donovani axenic amastigotes, read-out: L. don. axen. IC50
[18] = Leishmania donovani, Peritoneal macrophage, in Mus musculus, read-out: L. don. intracell IC50
[19] = infected macrophages, read-out: Cytotox. mac.inf. IC50
[20] = L6 cells, IC50 Cytotox. L6, L6 cells, means of two independent assays
[21] = axenic amastigotes, strain MHOM-ET-67/L82, means of two independent assays, read-out: IC50 L. don. axen.
[22] = Plasmodium falciparum, K1, read-out: P. falc. IC50

Question: Which results are given for `O=C(Nc1ccc([N+](=O)[O-])cc1Cl)c1cc(Cl)ccc1O` [Niclosamide]?
Answer: IC50 [1, 9]: 1.67 µM; IC50 (in vitro; IC50 Cytotox. L6): 2.3 µM; IC50 [2, 10]: 2.49 µM; IC50 [3, 11]: 0.15 µM; IC50 [4, 12]: > 0.31 µM; Activity against intracellular amastigotes at a fixed concentration ([4]; at a concentration of 0.1 μg/ml): inactive; IC50 (P. falciparum strain K1; [13]): 1.14 µM; MCC at 96 h [5, 14]: 1010 nM; Concentrations toxic to mouse macrophages ([6]; mouse, 96 h): > 300 ng/mL

Question: Which IC50 [1, 9] does the source give for `CC1CS(=O)(=O)CCN1/N=C/c1ccc([N+](=O)[O-])o1` (centres unmarked) [Nifurtimox] here?
Answer: Its IC50 is 1.44 µM.

Question: What about the “Activity against T. b. rhodesiense (in words)” value [1] of the same molecule?
Answer: The value was “active”.

Question: And the selectivity ratio ([1]; Selectivity index: IC50 Cytotoxicity L6/ IC50 T. b. rhodesiense)?
Answer: Its selectivity ratio is 60.

Question: What about the IC50 (in vitro; IC50 Cytotox. L6) of the same molecule?
Answer: Its IC50 is 87 µM.

Question: And the IC50 [2, 10]?
Answer: The IC50 was 0.19 µM.

Question: What about the selectivity ratio ([2]; rat, Selectivity index: IC50 Cytotoxicity L6/ IC50 T. cruzi) of the same molecule?
Answer: Its selectivity ratio is 458.

Question: What about the IC50 [3, 11] of the same molecule?
Answer: The IC50 was 2.76 µM.

Question: And the selectivity ratio at 96 h [7]?
Answer: Its selectivity ratio at 96 h is 13.

Question: And the IC50 [4, 12]?
Answer: Its IC50 is 20.7 µM.

Question: And the IC50 at 96 h [5, 14]?
Answer: The IC50 at 96 h was 34.8 µM.

Question: And the IC50 [6]?
Answer: Its IC50 is > 34.8 µM.

Question: What about the IC50 at 96 h ([8]; mouse) of the same molecule?
Answer: The IC50 at 96 h was 15.7 µM.

Question: For `N=C(N)c1ccc(OCCCCCOc2ccc(C(=N)N)cc2)cc1` [Pentamidine], which IC50 [1, 9] is on record?
Answer: The IC50 was 0.01 µM.

Question: And the “Activity against T. b. rhodesiense (in words)” value [1]?
Answer: Its value is “active”.

Question: What about the selectivity ratio [1] of the same molecule?
Answer: The selectivity ratio was 887.

Question: And the IC50 (in vitro; IC50 Cytotox. L6)?
Answer: Its IC50 is 8.87 µM.

Question: And the IC50 [2, 10]?
Answer: The IC50 was 4.44 µM.

Question: What about the IC50 [3, 11] of the same molecule?
Answer: The IC50 was 19.8 µM.

Question: And the IC50 [4, 12]?
Answer: Its IC50 is 2.63 µM.

Question: What about the IC50 at 96 h [5, 14] of the same molecule?
Answer: Its IC50 at 96 h is > 29.4 µM.

Question: What about the IC50 at 96 h ([8]; mouse) of the same molecule?
Answer: The IC50 at 96 h was 7.78 µM.

Question: What does the source list for `COc1cc(NC(C)CCCN)c2ncccc2c1` (centres unmarked) [Primaquine]?
Answer: IC50 [1, 15]: 4.78 µM; IC50 (in vitro): 43.2 µM; IC50 [2, 16]: 17.9 µM; IC50 [3, 17]: 48.6 µM; IC50 [4, 18]: 28.2 µM; IC50 at 96 h [5, 19]: > 38.6 µM; IC50 at 96 h ([8]; peritoneal mouse macrophages, read-out: Cytotox. PMM IC50): 39.7 µM

Question: Which results are given for `CCN(CC)CCCCCCNc1cc(OC)cc2c(C)ccnc12` [Sitamaquine]?
Answer: IC50 [1, 15]: 7.39 µM; IC50 (in vitro; [20]): 32.3 µM; IC50 [2, 16]: 22 µM; Activity against L. donovani axenic amastigotes (in words) [3]: moderate activity; IC50 [3, 17]: 13.7 µM; Activity against L. donovani intracellular amastigotes (in words) [4]: moderate activity; IC50 [4, 18]: 19.5 µM; IC50 (P. falciparum strain K1; [13]): 0.08 µM; selectivity ratio (P. falciparum strain K1): 404; IC50 at 96 h ([5]; mouse peritoneal macrophages infected with L. donovani, infected macrophages, read-out: Cytotox. mac.inf. IC50): > 29.1 µM; IC50 at 96 h ([8]; mouse): 21.4 µM

Question: For `Clc1ccc(C(Cn2ccnc2)OCc2ccsc2Cl)c(Cl)c1` (centres unmarked) [Tioconazole], which IC50 [1, 9] is on record?
Answer: Its IC50 is 29.9 µM.

Question: What about the IC50 (in vitro; IC50 Cytotox. L6) of the same molecule?
Answer: The IC50 was 19.5 µM.

Question: And the IC50 [2, 10]?
Answer: Its IC50 is 0.064 µM.

Question: What about the IC50 [3, 11] of the same molecule?
Answer: The IC50 was 9.26 µM.

Question: What about the “Activity against L. donovani intracellular amastigotes (in words)” value [4] of the same molecule?
Answer: The value was “active with low selectivity”.

Question: What about the IC50 [4, 12] of the same molecule?
Answer: The IC50 was 13.1 µM.

Question: What about the IC50 (P. falciparum strain K1; [13]) of the same molecule?
Answer: Its IC50 is 0.63 µM.

Question: And the “Activity against P. falciparum (in words)” value (P. falciparum strain K1; in vitro)?
Answer: The value was “active”.

Question: What about the selectivity ratio (P. falciparum strain K1) of the same molecule?
Answer: The selectivity ratio was 31.

Question: And the IC50 at 96 h ([8]; mouse)?
Answer: The IC50 at 96 h was 51.1 µM.

Question: For `CCC[C@@]1(CCc2ccccc2)CC(O)=C([C@H](CC)c2cccc(NS(=O)(=O)c3ccc(C(F)(F)F)cn3)c2)C(=O)O1` [Tipranavir], which IC50 [1, 9] is on record?
Answer: The IC50 was 26.4 µM.

Question: What about the IC50 (in vitro; [20]) of the same molecule?
Answer: Its IC50 is 53.4 µM.

Question: What about the IC50 [2, 10] of the same molecule?
Answer: Its IC50 is 28.2 µM.

Question: What about the IC50 [3, 11] of the same molecule?
Answer: The IC50 was < 3 µM.

Question: And the IC50 [3, 21]?
Answer: The IC50 was 1.64 µM.

Question: And the selectivity ratio at 96 h [7]?
Answer: Its selectivity ratio at 96 h is > 30.

Question: And the IC50 [4, 12]?
Answer: The IC50 was > 49.8 µM.

Question: What about the IC50 (P. falciparum strain K1; [13]) of the same molecule?
Answer: Its IC50 is 44.6 µM.

Question: And the IC50 at 96 h ([5]; mouse peritoneal macrophages infected with L. donovani, macrophages infected with L. donovani, read-out: IC50 Cytotox. mac.inf.)?
Answer: Its IC50 at 96 h is > 50 µM.

Question: And the IC50 [6]?
Answer: The IC50 was > 49.8 µM.

Question: For `Cc1cccc(N(C)C(=S)Oc2ccc3ccccc3c2)c1` [Tolnaftate], which IC50 [1, 15] is on record?
Answer: Its IC50 is 69.3 µM.

Question: And the IC50 (in vitro; Cytotox. L6 IC50)?
Answer: Its IC50 is 84.6 µM.

Question: And the IC50 [2, 16]?
Answer: Its IC50 is 20 µM.

Question: And the IC50 [3, 11]?
Answer: Its IC50 is 4.33 µM.

Question: And the selectivity ratio at 96 h [7]?
Answer: Its selectivity ratio at 96 h is > 23.

Question: What about the IC50 [4, 12] of the same molecule?
Answer: The IC50 was 50.1 µM.

Question: And the IC50 (P. falciparum strain K1; [22])?
Answer: The IC50 was 19 µM.

Question: What about the IC50 at 96 h [5, 14] of the same molecule?
Answer: The IC50 at 96 h was > 97.6 µM.

Question: What about the IC50 at 96 h [5, 19] of the same molecule?
Answer: Its IC50 at 96 h is > 97.6 µM.

Question: Which results are given for `Cc1c(C)c2c(c(C)c1O)CCC(C)(COc1ccc(CC3SC(=O)NC3=O)cc1)O2` (centres unmarked) [Troglitazone]?
Answer: IC50 [1, 15]: 59.3 µM; IC50 (in vitro; Cytotox. L6 IC50): 80.6 µM; IC50 [2, 16]: 32.6 µM; IC50 [3, 11]: 4.26 µM; selectivity ratio at 96 h ([7]; mouse peritoneal macrophages versus L. donovani amastigotes, axenic or intracellular IC50 not specified): > 16; IC50 [4, 12]: > 67.9 µM; IC50 (P. falciparum strain K1; [22]): 7.27 µM; IC50 at 96 h [5, 14]: > 68 µM; IC50 at 96 h [5, 19]: > 67.9 µM

Question: Which IC50 ([1]; read-out: IC50 T. b. rhod., strain STIB 900, trypomastigotes, means of two independent assays) does the source give for Bacitracine here?
Answer: The IC50 was > 70.3 µM.

Question: And the IC50 (L6 cells)?
Answer: The IC50 was 42.2 µM.

Question: And the IC50 ([2]; read-out: IC50 T. cruzi, strain Tulahuen C4, intracellular amastigotes, means of two independent assays)?
Answer: Its IC50 is 47.1 µM.

Question: What about the IC50 [3, 21] of the same molecule?
Answer: The IC50 was > 70.3 µM.

Question: What about the IC50 ([4]; read-out: IC50 L. don. intracell, intracellular amastigotes in mouse peritoneal macrophages, strain MHOM-ET-67/L82, 96 h) of the same molecule?
Answer: Its IC50 is > 21.1 µM.

Question: What about the IC50 (P. falciparum strain K1; read-out: IC50 P. falc. K1, strain K1, means of two independent assays) of the same molecule?
Answer: The IC50 was 19.8 µM.
